Counter-ions that a name gives are not always drawn. No end group written: not given here.
Tests used:
Format in all cases: cell-based
[1] = test system: 168 GPCRs; test: gpcrMAX panel 30 μM single-point β-arrestin screen (agonist and antagonist mode); conditions: antagonist mode
Experimental: Activity, or a “hit,” was defined as >30% in agonist mode, >35% in antagonist mode, or >50% in the orphan screen (agonist mode). Where these criteria were met, signal-to-noise (S/N) and coefficient of variation (CoV) were also calculated, defined as: […]
Agonist mode Antagonist modeS/N Compound mean/Baseline mean+(Baseline SD×3) EC80 mean/Compound-(Compound SD× 3)CoV Baseline mean/Compound mean-(Compound SD× 3) Compound mean/EC80 mean-(EC80 SD × 3)
Hits were verified to have S/N>1 and a CoV <1. Thresholds and subsequent validation were guided by Eurofins. Descriptive data (means ± S.E.M) was generated in Graphpad Prism (version 9.2.0, San Diego, CA).

[2] = target: T1, GPR119 (Homo sapiens, UniProt Q8TDV5); test: PathHunter β-arrestin assay; conditions: for inhibition in single-point screen: antagonist mode, 30 μM
T1 construct: purchased Eurofins DiscoverX (PathHunter gpcrMAX)
T1 sequence (Q8TDV5 1-335): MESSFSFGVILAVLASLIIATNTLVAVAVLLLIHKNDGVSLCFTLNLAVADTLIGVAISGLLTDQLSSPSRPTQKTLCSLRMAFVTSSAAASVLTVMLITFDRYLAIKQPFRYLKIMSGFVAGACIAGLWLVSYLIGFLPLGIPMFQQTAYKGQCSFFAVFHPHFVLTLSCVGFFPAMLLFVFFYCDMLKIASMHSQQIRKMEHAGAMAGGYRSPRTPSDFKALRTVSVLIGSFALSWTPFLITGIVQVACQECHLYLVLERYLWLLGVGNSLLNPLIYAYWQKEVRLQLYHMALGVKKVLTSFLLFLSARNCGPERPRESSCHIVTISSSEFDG

[3] = target: T2, CCR4 (Homo sapiens, UniProt P51679); test: PathHunter β-arrestin assay; conditions: for EC80: control agonist
T2 sequence (P51679 1-360): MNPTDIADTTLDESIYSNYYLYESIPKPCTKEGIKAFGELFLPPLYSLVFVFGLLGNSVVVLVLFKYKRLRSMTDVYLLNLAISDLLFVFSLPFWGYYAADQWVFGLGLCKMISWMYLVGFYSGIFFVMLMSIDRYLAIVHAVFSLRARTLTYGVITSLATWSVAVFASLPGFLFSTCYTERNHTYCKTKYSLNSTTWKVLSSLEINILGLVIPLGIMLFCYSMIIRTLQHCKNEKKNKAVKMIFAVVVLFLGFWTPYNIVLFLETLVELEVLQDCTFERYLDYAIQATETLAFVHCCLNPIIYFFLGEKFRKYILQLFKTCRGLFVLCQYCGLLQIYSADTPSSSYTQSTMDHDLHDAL
Experimental: (§1) Follow up experiments were prioritized based on the difference between S/N and CoV. Targets with a >5-fold difference between S/N and CoV were investigated for their potential contribution to the AMB-FUBINACA toxidrome with 10-point concentration-response curves generated in technical replicate (range 1.5–30 μM) using the EC80 of the relevant agonist, where applicable in antagonist mode. Simultaneous agonist and antagonist curves were run in parallel to ensure reliability of the assay (see Supplementary Table 2), with both RC50 and signal to background aligning with historical averages, and Z' >0.5. RC50 was estimated using a four-parameter fit (CBIS Data Analysis Suite, ChemInnovation, San Diego, CA) on normalized data.

[4] = target: PTGER4 (Homo sapiens, UniProt P35408); test: PathHunter β-arrestin assay; conditions: follow-up assays, control antagonist
Experimental: as §1

[5] = target: P2RY6 (Homo sapiens, UniProt Q15077); test: PathHunter β-arrestin assay
Experimental: as §1

[6] = test system: AtT20 cells wildtype (WT); test: LDH release cytotoxicity assay; conditions: 30 μM
Experimental: AtT20 cells expressing either human CB1 (hCB1) or CB2 (hCB2) receptors or wildtype (WT) were grown to confluence in T75 cm^2 flasks in Dulbecco's modified eagle medium containing 10% fetal bovine serum, 100 U penicillin/streptomycin, and 80 μg/mL hygromicyin (Sigma-Aldrich/Merck; Castle Hill, NSW, Australia). Cells were plated in 96-well-microplates at 30,000 cells per well and allowed to adhere overnight in 5% CO2. The following morning, cells were treated with either vehicle (0.1% DMSO; negative control), 30 μM Δ^9-THC, or 30 μM AMB-FUBINACA. At 1 or 6 h, the amount of lactate dehydrogenase in the cell media was tested, and compared with positive control (lysed cells) as per manufacturer's instructions (Dojindo Molecular Technologies, Inc.; Rockville, MD, USA), with readings performed on a Clariostar Plus plate reader (BMG Labtech, Mornington, VIC, Australia). Experiments were performed in triplicate. In order to measure any accumulating LDH, media was not changed after initial incubation. Data is represented as means ± S.E.M. A two-way ANOVA with was performed on the data at each time point, with Tukey's multiple comparison test (α = 0.05). A p < 0.05 was considered statistically significant.

[7] = target: T3, ADRA2C (Homo sapiens, UniProt P18825); test: PathHunter β-arrestin assay; conditions: control agonist
T3 sequence (P18825 1-462): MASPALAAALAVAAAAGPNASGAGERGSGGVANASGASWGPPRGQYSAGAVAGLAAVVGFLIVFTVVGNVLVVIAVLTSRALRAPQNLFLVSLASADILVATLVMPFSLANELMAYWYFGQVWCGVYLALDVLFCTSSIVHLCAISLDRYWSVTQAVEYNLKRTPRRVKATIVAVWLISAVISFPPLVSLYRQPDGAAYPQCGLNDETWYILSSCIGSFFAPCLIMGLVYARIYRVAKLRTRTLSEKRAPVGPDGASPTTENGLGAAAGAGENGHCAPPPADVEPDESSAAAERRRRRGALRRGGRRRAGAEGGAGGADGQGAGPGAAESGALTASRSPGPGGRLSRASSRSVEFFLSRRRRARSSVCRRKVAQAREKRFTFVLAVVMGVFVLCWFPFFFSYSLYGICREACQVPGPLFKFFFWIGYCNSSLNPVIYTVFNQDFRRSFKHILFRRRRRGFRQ

[8] = target: GPR35 (Homo sapiens, UniProt Q9HC97); test: PathHunter β-arrestin assay; conditions: control agonist
[9] = target: T4, CCR6 (Homo sapiens, UniProt P51684); test: PathHunter β-arrestin assay; conditions: control agonist
T4 construct: purchased Eurofins DiscoverX (PathHunter gpcrMAX)
T4 sequence (P51684 1-374): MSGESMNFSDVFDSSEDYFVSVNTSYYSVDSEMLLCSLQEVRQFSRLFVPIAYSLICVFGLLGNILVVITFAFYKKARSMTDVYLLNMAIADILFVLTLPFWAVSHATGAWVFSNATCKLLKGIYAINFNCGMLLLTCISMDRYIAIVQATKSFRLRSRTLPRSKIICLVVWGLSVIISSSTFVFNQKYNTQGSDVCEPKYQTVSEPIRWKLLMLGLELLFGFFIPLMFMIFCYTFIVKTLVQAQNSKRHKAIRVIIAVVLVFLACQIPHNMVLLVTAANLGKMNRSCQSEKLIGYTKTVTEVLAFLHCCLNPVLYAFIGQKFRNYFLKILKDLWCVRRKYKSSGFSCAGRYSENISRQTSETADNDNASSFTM
Experimental: as §1

[10] = target: T5, HCRTR1 (Homo sapiens, UniProt O43613); test: PathHunter β-arrestin assay; conditions: control agonist
T5 sequence (O43613 1-425): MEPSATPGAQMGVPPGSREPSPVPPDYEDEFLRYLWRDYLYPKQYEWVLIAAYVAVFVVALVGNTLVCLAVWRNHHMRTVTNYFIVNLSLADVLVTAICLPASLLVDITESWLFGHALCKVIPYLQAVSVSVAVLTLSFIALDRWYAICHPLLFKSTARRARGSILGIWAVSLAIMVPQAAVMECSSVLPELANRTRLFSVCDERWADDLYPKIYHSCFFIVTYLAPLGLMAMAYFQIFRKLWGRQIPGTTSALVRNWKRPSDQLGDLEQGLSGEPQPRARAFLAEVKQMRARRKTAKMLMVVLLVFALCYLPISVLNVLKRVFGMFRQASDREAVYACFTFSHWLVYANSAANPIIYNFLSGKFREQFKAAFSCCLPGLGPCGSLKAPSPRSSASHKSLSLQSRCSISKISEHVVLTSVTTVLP
Experimental: as §1

[11] = target: CCR8 (Homo sapiens, UniProt P51685); test: PathHunter β-arrestin assay; conditions: control agonist
Experimental: as §1

[12] = target: T6, CCR9 (Homo sapiens, UniProt P51686); test: PathHunter β-arrestin assay; conditions: control agonist
T6 construct: purchased Eurofins DiscoverX (PathHunter gpcrMAX)
T6 sequence (P51686 1-369): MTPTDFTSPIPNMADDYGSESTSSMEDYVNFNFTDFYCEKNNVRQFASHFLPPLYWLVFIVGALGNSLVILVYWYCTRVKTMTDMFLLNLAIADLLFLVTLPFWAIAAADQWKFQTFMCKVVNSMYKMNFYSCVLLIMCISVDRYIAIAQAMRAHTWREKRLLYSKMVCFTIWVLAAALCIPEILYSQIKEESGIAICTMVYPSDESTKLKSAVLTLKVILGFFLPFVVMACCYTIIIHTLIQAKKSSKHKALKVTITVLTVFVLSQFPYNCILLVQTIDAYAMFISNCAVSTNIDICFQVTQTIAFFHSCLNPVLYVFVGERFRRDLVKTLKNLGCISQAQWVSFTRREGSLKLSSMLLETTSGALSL
Experimental: as §1

[13] = follow-up assays, control antagonist
[14] = follow-up concentration-response assays

P2RY6, sequence (Q15077 whole entry): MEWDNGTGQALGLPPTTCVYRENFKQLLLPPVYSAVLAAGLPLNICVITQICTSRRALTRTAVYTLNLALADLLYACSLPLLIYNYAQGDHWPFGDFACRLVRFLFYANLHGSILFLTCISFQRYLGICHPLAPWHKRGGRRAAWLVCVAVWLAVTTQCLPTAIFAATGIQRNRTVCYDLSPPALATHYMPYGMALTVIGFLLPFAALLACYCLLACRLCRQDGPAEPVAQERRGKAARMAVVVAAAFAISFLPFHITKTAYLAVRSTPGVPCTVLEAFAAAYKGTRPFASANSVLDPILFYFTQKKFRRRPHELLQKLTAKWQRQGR
GPR35, sequence (Q9HC97 whole entry): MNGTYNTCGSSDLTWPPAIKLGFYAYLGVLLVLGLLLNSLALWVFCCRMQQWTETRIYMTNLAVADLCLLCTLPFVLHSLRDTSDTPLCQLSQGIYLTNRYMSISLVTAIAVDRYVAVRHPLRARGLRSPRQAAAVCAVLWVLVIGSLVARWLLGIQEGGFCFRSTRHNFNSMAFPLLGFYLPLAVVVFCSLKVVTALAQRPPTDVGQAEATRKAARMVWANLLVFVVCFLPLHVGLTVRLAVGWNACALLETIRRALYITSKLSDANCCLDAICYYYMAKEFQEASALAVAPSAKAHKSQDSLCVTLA
PTGER4, sequence (P35408 whole entry): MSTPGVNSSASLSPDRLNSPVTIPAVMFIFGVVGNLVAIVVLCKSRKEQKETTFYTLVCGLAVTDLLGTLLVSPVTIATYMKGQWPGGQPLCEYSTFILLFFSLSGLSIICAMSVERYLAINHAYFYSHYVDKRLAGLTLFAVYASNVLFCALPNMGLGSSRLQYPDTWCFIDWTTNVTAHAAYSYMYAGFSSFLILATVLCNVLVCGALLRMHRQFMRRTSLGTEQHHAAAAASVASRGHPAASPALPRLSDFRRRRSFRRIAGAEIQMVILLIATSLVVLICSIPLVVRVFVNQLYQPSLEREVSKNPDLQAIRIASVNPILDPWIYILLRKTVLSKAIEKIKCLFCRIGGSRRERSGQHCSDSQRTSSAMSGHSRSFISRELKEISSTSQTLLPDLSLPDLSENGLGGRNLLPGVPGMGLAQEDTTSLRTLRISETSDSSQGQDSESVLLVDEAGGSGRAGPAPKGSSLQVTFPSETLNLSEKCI

COC(=O)C(NC(=O)c1nn(CCCCF)c2ccccc12)C(C)(C)C (centres unmarked) [4F-MDMB-BUTINACA]
number of off-targets inhibited (>35%) [1]: 16

CCCCCn1nc(C(=O)NC23CC4CC(CC(C4)C2)C3)c2ccccc21 [AKB-48]
inhibition in single-point screen [2]: inhibited to the greatest extent of any antagonist mode target

COc1cc2nc(N3CCC(N4CCCCC4)CC3)nc(NC3CCCCCC3)c2cc1OC [C 021 dihydrochloride]
IC50 [3, 13]: 2.58 nM

CCCCCn1nc(C(=O)NC(C)(C)c2ccccc2)c2ccccc21 [CUMYL-PINACA]
inhibition in single-point screen [2]: inhibited to the greatest extent of any antagonist mode target | number of off-targets inhibited (>35%) [1]: inhibited the greatest number of targets

CCCCc1nn(-c2ccccc2C(F)(F)F)c(=O)n1Cc1ccc(-c2ccccc2S(=O)(=O)NC(=O)c2sccc2C)cc1 [L 161,982]
IC50 [4]: 15.9 nM

S=C=Nc1cccc(NC(=S)NCCCCNC(=S)Nc2cccc(N=C=S)c2)c1 [MRS 2578]
IC50 [5, 13]: 2520 nM

CCCCCCCC/C=C\CCCCCCCC(=O)NCCO [Oleoyl Ethanolamide]
EC80 ([2]; screen, control agonist, HEK, 37C, 2HR): 4310 nM

CCCCCn1cc(C(=O)Oc2cccc3cccnc23)c2ccccc21 [PB-22]
number of off-targets inhibited (>35%) [1]: 20

CCCCCc1cc(O)c2c(c1)OC(C)(C)[C@@H]1CCC(C)=C[C@@H]21 [THC, Δ^9-tetrahydrocannabinol]
LDH in cell media, normalized to total LDH ([6]; 1 h): 22.40 ± 3.44% | LDH increase compared with vehicle ([6]; 6 h): no effect was observed

O=c1ccn([C@@H]2O[C@H](COP(=O)(O)OP(=O)(O)O)[C@@H](O)[C@H]2O)c(=O)[nH]1 [UDP]
EC80 ([5]; follow-up concentration-response assays, control agonist): 74.88 nM

Brc1c(NC2=NCCN2)ccc2nccnc12 [UK 14,304]
EC80 [7, 14]: 123.1 nM | EC80 ([7]; screen, CHO, RT, 2HR): 111 nM

CCCOc1ccccc1-c1nc2nn[nH]c2c(=O)[nH]1 [Zaprinast]
EC80 [8, 14]: 4048 nM | EC80 ([8]; screen, CHO, 37C, 2HR): 12100 nM

CCL20: control agonist
EC80 [9, 14]: 44.68 nM | EC80 ([9]; screen, CHO, 37C, 2HR): 44.7 nM

Orexin A (QPLPDCCRQKTCSCRLYELLHGAGNHAAGILTL; not fully specified (residue 1, C-terminus, bridges); cysteine pairing not given here; UniProt O43612 34-66, looked up) [control agonist]
EC80 [10, 14]: 10.62 nM | EC80 ([10]; screen, CHO, 37C, 2HR): 10.6 nM

B1: CCL22: control agonist (protein, UniProt O00626 25-93, looked up)
C-C motif chemokine 22: GPYGANMEDSVCCRDYVRYRLPLRVVKHFYWTSDSCPRPGVVLLTFRDKEICADPRVPWVKMILNKLSQ
EC80 [3, 14]: 19.61 nM | EC80 ([3]; screen, CHO, 37C, 2HR): 6.54 nM

B2: CCL1: control agonist (protein, UniProt P22362 24-96, looked up)
C-C motif chemokine 1: KSMQVPFSRCCFSFAEQEIPLRAILCYRNTSSICSNEGLIFKLKRGKEACALDTVGWVQRHRKMLRHCPSKRK
EC80 [11, 14]: 157.4 nM | EC80 ([11]; screen, CHO, 37C, 2HR): 157 nM

B3: CCL25: control agonist (protein, UniProt O15444 24-150, looked up)
C-C motif chemokine 25: QGVFEDCCLAYHYPIGWAVLRRAWTYRIQEVSGSCNLPAAIFYLPKRHRKVCGNPKSREVQRAMKLLDARNKVFAKLHHNTQTFQAGPHAVKKLSSGNSKLSSSKFSNPISSSKRNVSLLISANSGL
EC80 [12, 14]: 350 nM | EC80 ([12]; screen, CHO, 37C, 2HR): 370 nM
